In patent US20220362330A1, “Compositions and Methods for Increasing Epithelial Barrier Function” (The Board of Trustees of the Leland Stanford Junior …, priority 2019, published 2022):

Test system: DSG1
Assay: DSG1 gene expression in ectocervical biopsies from women
Type: in vivo
Details: 1 month after initiating DMPA vs no hormonal contraceptive
From the text: FIG. 3 is a graph showing the effect of DMPA on ectocervical DSG1 gene expression in women. Ectocervical biopsy tissue collected from the same women; before they started (No HC) and 1 month after they initiated DMPA.
To confirm the relevance of the mouse model findings, DMPA-mediated changes in mucosal permeability was explored with ectocervical biopsies from women using no hormonal contraceptive and again 1 month after they initiated DMPA.
Human ectocervical and murine vaginal tissues were immediately immersed in 1 mL of RNAlater® (Qiagen), stored for 24 h at 4° C., and stored long-term at −80° C. RNA isolated using the RNeasy Lipid Tissue Kit (Qiagen) using manufacturer's instructions was re-suspended in nuclease-free water and quantified using a NanoDrop spectrophotometer (Thermo Scientific). The following mouse primers were utilized: desmocollin 1 (Mm00496525_ml), desmoglein-1α (Mm00809994_s1), ephrinA3 (Mm01212723_g1) and pyruvate carboxylase (Mm00500992_ml) as housekeeping reference gene (all from Thermo Scientific). […] To define relative gene expression, 100 ng of RNA was mixed with TaqMan® RNA-to-Ct™ 1-Step Kit and adequate primer (final volume of 10 μL/well) using manufacturer's instructions (Life Technologies). qRT-PCR was performed using a Quantstudio3 Thermal Cycler, and data analyzed via Quanstudio Software (Applied Biosystems).

## CC(=O)O[C@]1(C(C)=O)CC[C@H]2[C@@H]3C[C@H](C)C4=CC(=O)CC[C@]4(C)[C@H]3CC[C@@]21C [DMPA]
  DSG1 expression in ectocervical tissue: significantly lower
